Results from patent US10563272B2, “Compositions comprising Metarhizium fungi and use thereof as a pesticide” (Cotton Research and Development Corporation, priority 2015, dated 2020).

Tests used:
predatory lacewings = test: Bollgard II cotton, Auscott-Togo 2012-13, Field 77 (Experiment 1): predatory lacewings; assay type: in vivo, Chrysopa spp., Micromus tasmaniae; conditions: 62.5 mL/ha
Experimental: Two separate trials (Experiment 1 in Field 77; Experiment 2 in Field 63) were conducted in Bollgard II cotton crops on a commercial cotton farm at Auscott-Togo near Narrabri, New South Wales from 11 Feb. to 5 Mar. 2013 (Field 77) and 19 Feb. to 6 Mar. 2013 (Field 63). The cotton used for each of the trials was at the late squaring to pod setting and maturation stages which was fairly attractive to green mirids.
In both trials, the efficacy of the following treatments against green mirids and predatory insects was evaluated: • 1. 250 mL/ha DAT 511 spore in oil (1×10^7 spores/ml); • 2. 500 mL/ha DAT 511 spore in oil (1×10^7 spores/ml); • 3. 1 L/ha DAT 511 spore in oil (1×10^7 spores/ml); • 4. 62.5 mL/ha of fipronil; and • 5. Unsprayed (negative control).
The treatment plots were arranged in a randomized complete block design with six replicates per treatment. Each replicated plot measured 40 m wide (40 rows) and 90 m long.
Foliar application of each treatment was made on 28 Feb. (for both green mirids and beneficial insects) and 13 Mar. 2012 (for beneficial insects alone) using a ground spray rig fitted with flat fan nozzles to achieve a droplet size of 200 μm. The treatment was applied during the mornings when temperatures were between 20° C. and 28° C. The timing of treatment was based on the IPM Guidelines and recommendations by CottonLogic to use an economic threshold of 0.5 green mirids per metre (Deutscher and Wilson 1999; Khan et al. 2004).
Pre-treatment counts of green mirid adults and nymphs, predatory beetles, predatory bugs, predatory lacewings and spiders were made by visual inspection of whole cotton plants. Both adults and nymphs of beneficial insects were counted. Plants were assessed in randomly selected one-metre lengths of row of each replicate (i.e. 6 m per treatment). Post-treatment counts were made 3, 7, 14 and 21 days after treatment. Data are expressed as numbers of green mirid adults and nymphs counted per metre for each treatment.

spiders = test: Rate trial on conventional cotton refuge crops, Undabri 2012 (Example 12): spiders; assay type: in vivo, Lycosa spp., Oxyopes spp., Salticidae spp., Araneus spp.; conditions: DAT 511 250 mL/ha, 500 mL/ha and 1.0 L/ha; fipronil 62.5 mL/ha
Experimental: This trial was conducted using commercial conventional cotton refuge crops at Undabri in Goondiwindi (28° 55'S, 150° 31′E) from 14 Feb. to 6 Mar. 2012.
The efficacy of the following treatments against green mirids, green vegetable bugs and predatory insects was assessed: • 1. 250 mL/ha DAT 511 spore in oil (1×10^7 spores/ml); • 2. 500 mL/ha DAT 511 spore in oil (1×10^7 spores/ml); • 3. 1 L/ha DAT 511 spore in oil (1×10^7 spores/ml); • 4. 62.5 mL/ha fipronil; and • 5. Unsprayed (negative control).
The plots were arranged in a randomized complete block design with three replicates per treatment. Each replicated plot measured 8 m (8 rows) wide and 250 m long.
Foliar applications of each treatment were made on 14 Feb. 2012 using a ground spray rig fitted with flat fan nozzles to achieve a droplet size of 200 μm. All insecticide formulations were water miscible. All treatments were applied using a spray volume of 100 L/ha. The untreated (negative control) plot was left unsprayed and the plot treated with synthetic insecticide received two applications similar to, and on the same date as, the plots treated with the fungus.
For each replicate, visual counts of adults and nymphs of green mirids, green vegetable bugs (GVB), apple dimpling bugs and predatory insects on whole cotton plants were made in a randomly selected 1 m length of row of cotton plants (i.e. 6 m per treatment). […]

N#Cc1nn(-c2c(Cl)cc(C(F)(F)F)cc2Cl)c(N)c1[S+]([O-])C(F)(F)F (stereo not drawn) [fipronil]
No. predatory lacewings per meter (predatory lacewings; 3 DAT): 0.00 ± 0.00 a per meter
No. predatory lacewings per meter (predatory lacewings; 7 DAT): 0.00 ± 0.00 a per meter
No. predatory lacewings per meter (predatory lacewings; 14 DAT): 0.33 ± 0.33 a per meter
No. predatory lacewings per meter (predatory lacewings; 21 DAT): 0.33 ± 0.33 a per meter
No. predatory lacewings per meter (predatory lacewings; pre-spray counts): 0.00 ± 0.00 a per meter
effect on number of spiders per metre (spiders): significantly lower
